Results: patent US9364413B2, “Method for anti-aging treatment by surfactin in cosmetics via enhancing sirtuin” (UMO International Co., Ltd., priority 2014, dated 2016)
Peptide text beside a SMILES is read from it.

How the values were obtained:
[1] = skin penetration of FITC-labeled dexamethasone in mice; assay type: in vivo; conditions: 0.2, 0.5, 1 and 2% surfactin, 1 hour, back of mice, fluorescence intensity
Method: (§1) Before the experiment, the back of the mice was shaved. Mice aged 6-8 weeks were anesthetized by intraperitoneal injection using (Zoletil) and lay the animal flat before shaving the back with a electric razor and remove the remaining hair with hair removal cream. Place the animals in the cages with a warming light and provide water in each cage. Two groups are include in the experiment: for the control group, 100 μl of PBS (pH=7.4) was mixed with fluorescein isothiocyanate (FITC)-labeled HA or dexamethasone before added to 1 cm2 sterile cotton and affixed to the back of the mice; for the experimental group, FITC-labeled HA or dexamethasone was mixed with 0, 0.2, 0.5, 1, 2 and 5% surfactin for 1 hour.
(§2) At the end of 1 hour treatment, sacrificed the mice with CO2 asphyxiation, clean up the drug residue on the skin with ethanol and cut the skin on the back and embedded in Optimum cutting temperature compound (O.C.T) (SAKURA®, Japen) for cryosection (CM-2000, Leica, Germany).

[2] = skin absorption of FITC-labeled hyaluronic acid in mice; assay type: in vivo; conditions: 1 hour, back of mice
Method: as §1, §2

[3] = emulsifying power in diesel, emulsification index (E24); assay type: physicochemical
Method: After incubation at room temperature for 24 hours, emulsification index (E24) was measured.
The emulsifying power is one of the important indicator of surfactants, and present invention utilized the method published by Cooper et. al to measure the emulsification index of surfactants in diesel. Different concentrations of crude surfactin was dissolved in buffer solutions at pH 6.4, 7.4 and 8.4, and 2 ml of the dissolved mixture was added to a test tube containing 3 ml of diesel, vortex for 2 minutes and incubate at room temperature for 24 hours before measurement. The ration of height of the emulsifying phase and the total height of the solution multiplied by 100% will give the emulsification index of the test solution. The emulsifying power of oil products is represented as the emulsification index (E24), wherein the equation of E24 is shown as follows: E24(%)=(height of the emulsifying phase/total height of solution)×100%.

[4] = skin absorption of FITC-labeled poly-γ-glutamic acid in mice; assay type: in vivo; conditions: 1, 2, 5, 10, 15 and 20% surfactin, 1 hour, back of mice, fluorescence intensity
collagen = test: Sircol soluble collagen assay; assay type: cell-based, mouse; conditions: 24 hours
Method: Sircol™ soluble collagen assay kit was used for analysis the total concentration of collagen in the culture media and the general method is described as follows:
Place 0.1 ml of the test samples and the standards at different concentrations in separate 1.5 mL centrifuge tubes. Add 1 mL of dye reagent and vortex for 35 minutes, followed by centrifugation at 12000 rpm for 10 minutes and remove the supernatant. Carefully remove the residue water at the side of the tube to avoid contact with the precipitate. Add 1 mL of Alkali reagent to dissolve the precipitate and transfer 0.2 mL to a 96-well pate after the color has developed and measure absorbance at 570 nm using an ELISA reader.

mouse embryo fibroblasts [5] = test: cell proliferation of mouse embryo fibroblasts; assay type: cell-based; conditions: 48 hours
mouse embryo fibroblasts [6] = test: anti-oxidation: cell survival after hydrogen peroxide treatment (MTT method); assay type: cell-based
Method: Following subculture of the mouse embryo fibroblasts and incubation for 4 hours for attachment, hydrogen peroxide was used to treat the cells as the source of oxidation. The cells were treated with 100, 150, 200 and […] of hydrogen peroxide before addition of 25, 50, 75 and 100 μM of surfactin for another 24 hours. Cell survival rate was measured by the MTT method.

[7] = Razafindralambo et al.; cited from earlier work
[8] = turbidity of diluted shampoo and corecervate formation; assay type: physicochemical
Method: (1) Adjust the relative concentration of the shampoo to 0.01-1.0
Relative concentration=shampoo liquid (g)/(shampoo liquid (g)+water (g))
(2) Measure the transmittance rate (%, temperature at 40° C.) of the […] solution (1) and the turbidity is represented as =100−transmittance rate (%)

mouse embryo fibroblasts [9] = test: anti-photoaging: cell survival after UV-A irradiation (MTT method); assay type: cell-based; conditions: for cell survival rate after UV irradiation: 24 hours
Method: After incubation for 24 hours, cell survival rates were measured by the MTT method.

[10] = percutaneous penetration of gold nanoparticles in mice; assay type: in vivo; conditions: 12.5 ppm surfactin, gold nanoparticles 2 nm, mice (BALB/c)
From the text: We applied the mix of gold nanoparticles and surfactin to the skin of mice for a certain period of time and collected the skin for cryosection. Because gold nanoparticles is self-luminous, optical microscope can be used to observe the content of fluorescence of gold nanoparticles in epidermis and dermis of the skin. The results indicated skin care paste obtained by conventional methods is not helpful for gold nanoparticle absorption by the skin due to its internal gel-mass like or gel-bundle like structure and thus gold nanoparticles were only found in the epidermis.

[11] = foaming power, foam maximum density (MD); assay type: physicochemical; conditions: buffer pH 7.4, more than 150 μg of surfactin, surfactin produced by Bacillus subtilis TH
Method: Measure the height of the foam and calculate the foam maximum density (MD).
Surfactants are […] and present invention examined the foaming property of crude surfactin. The method developed by Razafindralambo et. al was referenced and different concentrations of crude surfactin was dissolved in a buffer solution with a pH at 7.4, vortex for 2 minutes and followed by incubation for 1 hour. The height of the foam was then measured and the foaming power is expressed as foam maximum density (MD) which is obtained by dividing the […].

sirtuin 1 gene = test: mRNA expression of the long-lived gene sirtuin 1 by real-time quantitative PCR; assay type: cell-based; conditions: mouse embryo fibroblasts
From the text: Total RNA was extracted from human skin fibroblasts and mouse embryo fibroblasts using TRIzol reagent (Invitrogen, USA), analyzed by RNA gel electrophoresis and subjected to RT-PCR for amplification of human skin fibroblasts sirtuin 1 and sirtuin 3 and mouse embryo fibroblasts sirtuin 1. GeneBan was used to identify well known sequences of sirtuins and GCG program was utilized to search for sequences with high similarity. A primer set was designed for polymerase chain reaction (PCR), followed by 1.2% agarose gel electrophoresis of a small portion of the reaction product to confirm the expected product has been amplified. Once confirmed, the remaining product was subjected to low-melting point agar gel electrophoresis, the product was excised from the gel and the specific size of DNA fragment was purified by gel extraction for cloning. The purified DNA fragment was ligated with the cloning vector pGEM-T-easy vector (pGEM-T-easy cloning kit, Promega, USA) before transformed into the competent cells. Finally, after small scale culture, cloning vector was extracted for sequencing, and the sequence data was compared using the BLAST program of NCBI. Part of the human skin fibroblast sirtuin 1 and sirtuin 3 and mouse embryo fibroblasts sirtuin 1 were correctly cloned by the abovementioned cloning procedures and the selected clones were transformed into competent cells again for extraction of plasmid with high purity for future experiments.
RNA is easily degraded in natural environment by RNase and thus all tools used must be autoclaved and dried in an oven prior to conducting experiments and wear gloves and masks during the procedures. Quickly add 800 μL TRIzol™ reagent to the culture dish of the experimental group and transfer the washed off cells to a sterile tube. Add chloroform to the tube in the volume of ⅕ of the total volume of TRIzol™ reagent and shake vigorously for 30 seconds. After incubation at room temperature for 15 minutes, centrifuge at 13200 rpm for 15 minutes at 4° C. and transfer the supernatant to a new 1.5 mL eppendorf. RNA is present in the aqueous phase of the supernatant. Transfer the supernatant to another clean 1.5 mL eppendorf and add Isopropanol in the volume of ½ of TRIzol™ reagent and high salt solution (1.2 M Sodium Chloride and 0.8 M Sodium citrate), mix well and incubate at −20° C. for 30 minutes, followed by centrifugation at 13200 rpm for 15 minutes at 4° C. to precipitate RNA; remove the supernatant carefully and add 800 μL of 100% absolute ethanol to wash and centrifuge at 13200 rpm for 10 minutes at 4° C. before washing with 100% ethanol. Carefully remove the supernatant and dry the RNA precipitate at 55° C. for 5 minutes. Dissolve the RNA precipitate in 15 μL DEPC water and incubate at 55° C. for 10 minutes and store at −80° C. freezer for future use.
Place 5 μg of total RNA in a 200 μL eppendorf and adjust the volume to 13 μL with DEPC water, add 1 μL of oligo(dT) 18, 10 mM dNTPs and incubate on ice. Add 4 μl of 5×AMV buffer and 1 μl of AMV (40 units/μL) and mix well. […]
The fluorescent dye SYBR green I can be embedded in the groove of double-stranded DNA and generate fluorescence when excited by a halogen light and its intensity can then be measured. When SYBR green I is not embedded in the groove of double-stranded DNA, its fluorescence background value is very low; and when it starts to integrate into the amplified target gene sequence, the fluorescence signal of SYBR green I will also be increased accordingly. […]

Q: With CC(C)CCCCCCCCC[C@@H]1CC(=O)N[C@@H](CCC(=O)O)C(=O)N[C@@H](CC(C)C)C(=O)N[C@H](CC(C)C)C(=O)N[C@@H](C(C)C)C(=O)N[C@@H](CC(=O)O)C(=O)N[C@H](CC(C)C)C(=O)N[C@@H](CC(C)C)C(=O)O1 [surfactin] (HELM PEPTIDE1{E.L.[dL].V.D.[dL].L}|CHEM1{[CC(C)CCCCCCCCC[C@H](CC(=O)[*:1])O[*:2]]}$PEPTIDE1,CHEM1,1:R1-1:R1|PEPTIDE1,CHEM1,7:R2-1:R2$$$V2.0) as the molecule, how does the “skin penetration of dexamethasone” value [1] read?
A: can enhance skin penetration of dexamethasone

Q: And the “hyaluronic acid (HA) absorption by the skin” value ([2]; 0.2-5% surfactin, fluorescence intensity)?
A: can increase hyaluronic acid (HA) absorption by the skin

Q: What about the “surfactin concentration with the best effect on enhancing skin absorption of HA” value [2] of the same molecule?
A: 1%

Q: What about the “pH of the best emulsifying power” value ([3]; pH 6.4, 7.4 and 8.4 tested, E24 after 24 hours) of the same molecule?
A: 7.4

Q: What about the “concentration of the best emulsifying power” value ([3]; pH=7.4) of the same molecule?
A: 160 μg/m

Q: And the “skin absorption of γ-GPA” value [4]?
A: can all increase skin absorption of γ-GPA

Q: And the “collagen proliferation in mouse embryo fibroblasts” value (collagen; 25, 50, 75 and 100 μM, compared with PBS control)?
A: great effects in increasing collagen proliferation

Q: What about the “concentration with the best result in increasing collagen” value (collagen) of the same molecule?
A: 100 µM

Q: What about the “mouse embryo fibroblast proliferation” value (mouse embryo fibroblasts [5]; 0, 25, 50, 75 and 100 μM) of the same molecule?
A: can enhance mouse embryo fibroblast proliferation

Q: And the “concentration with the best effect in inducing cell proliferation” value (mouse embryo fibroblasts [5]; followed by 50 μM)?
A: 75 µM

Q: And the “cell proliferation compared with resveratrol and Palmitoyl pentapeptide-3” value (mouse embryo fibroblasts [5]; resveratrol 0-30 μM, Palmitoyl pentapeptide-3 0-10 μM)?
A: better effect in inducing cell proliferation

Q: And the “protective effect against hydrogen peroxide” value (mouse embryo fibroblasts [6]; 25, 50 and 75 μM surfactin)?
A: good protective effect

Q: What about the “survival rate of mouse embryo fibroblasts treated with hydrogen peroxide” value (mouse embryo fibroblasts [6]; hydrogen peroxide 100-250 μM, surfactin 24 hours, MTT) of the same molecule?
A: can increase the survival rate

Q: What about the “MD value of surfactin” value [7] of the same molecule?
A: ≥ 0.10

Q: And the “turbidity of the shampoo” value ([8]; compared with sodium laureth sulfate, 40° C., relative concentration 0.01-1.0)?
A: can further reduce the turbidity of the shampoo

Q: And the corecervate formation ([8]; shampoo during flushing / dilution)?
A: corecervate will occur at low concentrations

Q: And the “cell survival rate after UV irradiation” value (mouse embryo fibroblasts [9]; UV 10 J/cm^2, 25, 50, 75, 100 and 125 μM surfactin)?
A: increase cell survival rate

Q: And the “concentration with the best protection after UV irradiation” value (mouse embryo fibroblasts [9]; UV 10 J/cm^2, 24 hours)?
A: 75 µM

Q: And the “cell survival rate after UV irradiation” value (mouse embryo fibroblasts [9]; UV 15 J/cm^2, 25, 50, 75, 100 and 125 μM surfactin)?
A: increase cell survival rate

Q: What about the “concentration with the best protection after UV irradiation” value (mouse embryo fibroblasts [9]; UV 15 J/cm^2, 24 hours) of the same molecule?
A: 50 µM

Q: What about the “percutaneous absorption of gold nanoparticles” value [10] of the same molecule?
A: significantly enhance the percutaneous absorption of gold nanoparticles

Q: What about the “foam maximum density (MD), minimum” value [11] of the same molecule?
A: 1.23

Q: And the “concentration with the best effect in enhancement of sirtuin 1 expression” value (sirtuin 1 gene; 0-100 μM tested, 6-48 hours)?
A: 50 µM

Q: What about the “expression of the sirtuin 1 gene” value (sirtuin 1 gene; 6 hours, 50 μM and 75 μM surfactin) of the same molecule?
A: enhance expression of the sirtuin 1 gene

Q: And the “expression of the sirtuin 1 gene” value (sirtuin 1 gene; 12 hours, 25 μM surfactin)?
A: enhancement of expression of the sirtuin 1 gene

Q: What about the “expression of the sirtuin 1 gene” value (sirtuin 1 gene; 36 hours, 50 μM and 100 μM surfactin) of the same molecule?
A: enhancement of expression of the sirtuin 1 gene

Q: What about the “expression of the sirtuin 1 gene” value (sirtuin 1 gene; 48 hours, 50 μM surfactin) of the same molecule?
A: enhancement of expression of the sirtuin 1 gene

Q: Which results are given for “palmitoyl pentapeptide-3 [reference compound]”?
A: collagen effect compared with surfactin (collagen): not as good as surfactin; collagen content in the cells (collagen; Palmitoyl pentapeptide-3 3, 5, 8 and 10 μM): can also increase collagen content
